Where a name gives a salt, the structure may show the parent alone.
These molecules were tested against hNav1.7 (Homo sapiens (Human), UniProt Q15858) (assay: Tritiated compound binding to membranes from cells expressing hNav1.7 and the β1 subunit (Nav1.7 LBA EVO)). Conditions: competitive binding vs [3H]compound, membranes with hNav1.7 and β1 subunit.
Procedure: Example 64a. Tritiated Compound Binding to Membranes Isolated from Cells that Heterologously Express hNav1.7 and the β1 Subunit
Preparation of membranes containing recombinantly expressed sodium channels: Frozen recombinant cell pellets are thawed on ice and diluted to 4 times the cell pellet weight with ice cold 50 mM Tris HCl, pH 7.4 buffer. The cell suspensions are homogenized on ice using a motorized glass dounce homogeniser. Homogenates are further diluted 8.4 times with ice cold 50 mM Tris HCl, pH 7.4 buffer and then centrifuged at 200×g at 4° C. for 15 minutes. The supernatants are collected and centrifuged at 10000×g at 4° C. for 50 min. The pellets are then re-suspended in 100 mM NaCl, 20 mM Tris HCl, pH 7.4 buffer containing 1% v/v protease inhibitors (Calbiochem) and re-homogenized on ice. The homogenized membranes are then processed through a syringe equipped with a 26 gauge needle. Protein concentrations arer determined by Bradford Assay and the membranes are stored at −80° C.
Radioligand Binding Studies: Saturation experiments. A competitive NaV1.7 inhibitor having a methyl group is tritiated. Three tritiums are incorporated in place of methyl hydrogens to generate [^3H]compound. Binding of this radioligand is performed in 5 mL borosilicate glass test tubes at room temperature. Binding is initiated by adding membranes to increasing concentrations of [^3H]compound in 100 mM NaCl, 20 mM Tris HCl, pH 7.4 buffer containing 0.01% w/v bovine serum albumin (BSA) for 18 h. Non-specific binding is determined in the presence of 1 μM unlabeled compound. After 18 h, the reactants are filtered through GF/C glass fiber filters presoaked in 0.5% w/v polyethylene imine. Filters are washed with 15 mL ice cold 100 mM NaCl, 20 mM Tris HCl, pH7.4 buffer containing 0.25% BSA to separate bound from free ligand. [^3H]compound bound to filters is quantified by liquid scintillation counting.
Competitive binding experiments: Binding reactions are performed in 96-well polypropylene plates at room temperature for 18 h. In 360 μL, membranes are incubated with 100 pM [^3H]compound and increasing concentrations of Test Compound. Non-specific binding is defined in the presence of 1 μM unlabeled compound. Reactions are transferred and filtered through 96-well glass fiber/C filter plates presoaked with 0.5% polyethylene imine. The filtered reactions are washed 5 times with 200 μL ice cold buffer containing 0.25% BSA. Bound radioactivity is determined by liquid scintillation counting.
Data Analysis: For saturation experiments, non-specific binding is subtracted from total binding to provide specific binding and these values are recalculated in terms of pmol ligand bound per mg protein. Saturation curves are constructed and dissociation constants are calculated using the single site ligand binding model: Beq=(Bmax*X)/(X+Kd), where Beq is the amount of ligand bound at equilibrium, Bmax is the maximum receptor density, Kd is the dissociation constant for the ligand, and X is the free ligand concentration. For competition studies percent inhibition is determined and IC50 values are calculated using a 4 parameter logistic model (% inhibition=(A+((B−A)/(1+((x/C)^D)))) using XLfit, where A and B are the maximal and minimum inhibition respectively, C is the IC50 concentration and D is the (Hill) slope.
Example 64b. Tritiated Compound Binding to Membranes Isolated from Cells that Heterologous Express hNav1.7 and the β1 Subunit
Preparation of membranes containing recombinantly expressed sodium channels: Following the procedure described in 31a, and making modifications as required to: centrifuge supernatants at 100000×g instead of 10000×g; re-suspend pellets in a buffer containing 0.01% BSA in addition to 100 mM NaCl, 20 mM Tris HCl, pH 7.4 buffer, and 1% v/v […]; and storing membranes at −80° C. in single use aliquots instead of pooled. […]

Sequence of hNav1.7 (Q15858 whole entry, looked up): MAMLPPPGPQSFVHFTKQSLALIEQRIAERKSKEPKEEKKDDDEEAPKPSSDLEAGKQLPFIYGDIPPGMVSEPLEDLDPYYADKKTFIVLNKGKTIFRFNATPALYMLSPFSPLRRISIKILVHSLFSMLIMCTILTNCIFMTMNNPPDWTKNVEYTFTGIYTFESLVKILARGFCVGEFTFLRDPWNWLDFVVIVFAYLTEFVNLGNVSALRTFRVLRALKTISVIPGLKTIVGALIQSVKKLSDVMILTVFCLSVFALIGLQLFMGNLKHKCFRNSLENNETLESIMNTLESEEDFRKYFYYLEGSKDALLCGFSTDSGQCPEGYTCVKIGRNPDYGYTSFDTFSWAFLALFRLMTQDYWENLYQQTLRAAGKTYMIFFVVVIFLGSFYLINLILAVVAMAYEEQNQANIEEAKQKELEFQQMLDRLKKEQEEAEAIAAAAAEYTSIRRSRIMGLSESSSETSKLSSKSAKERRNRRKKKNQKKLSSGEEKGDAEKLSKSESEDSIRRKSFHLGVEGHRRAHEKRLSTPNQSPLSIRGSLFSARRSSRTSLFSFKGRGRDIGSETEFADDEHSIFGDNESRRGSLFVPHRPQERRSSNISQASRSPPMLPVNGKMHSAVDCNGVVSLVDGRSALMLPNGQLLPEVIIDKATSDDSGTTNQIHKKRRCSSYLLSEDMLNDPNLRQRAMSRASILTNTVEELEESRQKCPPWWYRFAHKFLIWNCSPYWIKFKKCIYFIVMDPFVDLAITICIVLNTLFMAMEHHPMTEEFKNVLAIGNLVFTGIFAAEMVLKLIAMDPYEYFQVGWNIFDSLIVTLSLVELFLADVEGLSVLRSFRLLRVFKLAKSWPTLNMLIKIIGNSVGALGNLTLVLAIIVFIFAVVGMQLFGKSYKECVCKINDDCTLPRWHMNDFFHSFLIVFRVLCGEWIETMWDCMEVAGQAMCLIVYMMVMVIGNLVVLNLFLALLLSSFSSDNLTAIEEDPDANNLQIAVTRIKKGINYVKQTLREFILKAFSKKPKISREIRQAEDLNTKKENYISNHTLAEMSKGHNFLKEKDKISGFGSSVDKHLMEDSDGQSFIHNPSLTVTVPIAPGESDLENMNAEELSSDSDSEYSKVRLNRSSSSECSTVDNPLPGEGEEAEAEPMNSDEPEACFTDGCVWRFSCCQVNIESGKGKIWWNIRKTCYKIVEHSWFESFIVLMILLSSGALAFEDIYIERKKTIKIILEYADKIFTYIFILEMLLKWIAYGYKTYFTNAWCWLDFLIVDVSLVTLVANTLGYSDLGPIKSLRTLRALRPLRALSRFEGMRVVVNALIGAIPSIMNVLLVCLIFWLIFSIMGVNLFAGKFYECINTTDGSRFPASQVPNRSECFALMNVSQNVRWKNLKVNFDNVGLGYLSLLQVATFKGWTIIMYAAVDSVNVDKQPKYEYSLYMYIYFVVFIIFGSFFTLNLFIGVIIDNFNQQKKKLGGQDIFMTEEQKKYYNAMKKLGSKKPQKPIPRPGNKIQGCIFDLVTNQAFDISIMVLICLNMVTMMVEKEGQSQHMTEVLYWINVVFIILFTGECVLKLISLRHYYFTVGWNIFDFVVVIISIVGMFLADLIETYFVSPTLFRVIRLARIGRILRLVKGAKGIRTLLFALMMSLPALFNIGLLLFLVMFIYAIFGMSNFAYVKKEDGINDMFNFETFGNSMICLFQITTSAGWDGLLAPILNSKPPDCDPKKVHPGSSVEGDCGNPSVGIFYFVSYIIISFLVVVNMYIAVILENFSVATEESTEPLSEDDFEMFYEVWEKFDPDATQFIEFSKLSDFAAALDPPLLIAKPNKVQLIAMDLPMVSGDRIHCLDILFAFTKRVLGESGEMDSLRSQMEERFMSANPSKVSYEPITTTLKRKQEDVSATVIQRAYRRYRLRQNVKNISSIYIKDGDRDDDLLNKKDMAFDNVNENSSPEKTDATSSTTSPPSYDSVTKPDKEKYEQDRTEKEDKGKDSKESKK
Sequence of hNav1.7 (Q07699 whole entry partner, looked up): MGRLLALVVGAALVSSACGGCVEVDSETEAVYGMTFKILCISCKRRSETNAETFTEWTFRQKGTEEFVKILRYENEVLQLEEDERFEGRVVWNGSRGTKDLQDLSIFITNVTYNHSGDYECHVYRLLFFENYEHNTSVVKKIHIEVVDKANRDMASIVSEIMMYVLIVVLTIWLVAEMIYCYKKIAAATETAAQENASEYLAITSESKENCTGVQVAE

**Q.** For `CN(C)[C@H]1C[C@@H](c2cccc(C(F)(F)F)c2)CC[C@@H]1Oc1ccc(S(=O)(=O)Nc2ccncn2)cn1` [Example 1, 6-(((1S,2S,4S)-2-(Dimethylamino)-4-(3-(trifluoromethyl)phenyl)cyclohexyl)oxy)-N-(pyrimidin-4-yl)pyridine-3-sulfonamide], which IC50 is on record?
**A.** The IC50 was 28.2 nM.

**Q.** Which IC50 does the source give for `CN(C)[C@H]1C[C@@H](c2cccc(C(F)(F)F)c2)CC[C@@H]1Oc1ncc(S(=O)(=O)Nc2ccncn2)cc1Cl` [Example 3, 5-Chloro-6-(((1S,2S,4S)-2-(dimethylamino)-4-(3-(trifluoromethyl)phenyl)cyclohexyl)oxy)-N-(pyrimidin-4-yl)pyridine-3-sulfonamide] here?
**A.** Its IC50 is 40 nM.

**Q.** For `CN(C)[C@H]1C[C@@H](c2cccc(C(F)(F)F)c2)CC[C@@H]1Nc1ncc(S(=O)(=O)Nc2ccncn2)cc1Cl` [Example 4, 5-Chloro-6-(((1S,2S,4S)-2-(dimethylamino)-4-(3-(trifluoromethyl)phenyl)cyclohexyl)amino)-N-(pyrimidin-4-yl)pyridine-3-sulfonamide], which IC50 is on record?
**A.** Its IC50 is 8.3 nM.

**Q.** For `CN(C)[C@H]1C[C@@H](c2cccc(C(F)(F)F)c2)CC[C@@H]1Nc1ccc(S(=O)(=O)Nc2ccncn2)nc1` [Example 5, 5-(((1S,2S,4S)-2-(Dimethylamino)-4-(3-(trifluoromethyl)phenyl)cyclohexyl)amino)-N-(pyrimidin-4-yl)pyridine-2-sulfonamide], which IC50 is on record?
**A.** The IC50 was 66.4 nM.

**Q.** `CN(C)[C@H]1C[C@@H](c2cccc(C(F)(F)F)c2)CC[C@@H]1Oc1ncc(S(=O)(=O)Nc2ccncn2)cc1C#N` [Example 6, 5-Cyano-6-(((1S,2S,4S)-2-(dimethylamino)-4-(3-(trifluoromethyl)phenyl)cyclohexyl)oxy)-N-(pyrimidin-4-yl)pyridine-3-sulfonamide formate] was tested. Which IC50 did it give?
**A.** The IC50 was 44.8 nM.

**Q.** With `CN(C)[C@H]1C[C@@H](c2cccc(C(F)(F)F)c2)CC[C@@H]1Oc1ncc(S(=O)(=O)Nc2ccncn2)cc1C1CC1` [Example 7, 5-Cyclopropyl-6-(((1S,2S,4S)-2-(dimethylamino)-4-(3-(trifluoromethyl)phenyl)cyclohexyl)oxy)-N-(pyrimidin-4-yl)pyridine-3-sulfonamide formate] as the molecule, how does the IC50 read?
**A.** The IC50 was 4.88 nM.

**Q.** For `O=S(=O)(Nc1ccncn1)c1ccc(O[C@H]2CC[C@H](c3cccc(OC(F)(F)F)c3)C[C@@H]2N2CCCC2)nc1` [Example 10, N-(pyrimidin-4-yl)-6-(((1S,2S,4S)-2-(pyrrolidin-1-yl)-4-(3-(trifluoromethoxy)phenyl)cyclohexyl)oxy)-pyridine-3-sulfonamide], which IC50 is on record?
**A.** The IC50 was 67.4 nM.

**Q.** How did the IC50 turn out when `CN(C)[C@H]1C[C@@H](c2ccc(Cl)c(C(F)(F)F)c2)CC[C@@H]1Nc1ccc(S(=O)(=O)Nc2ccncn2)cn1` [Example 11, 6-(((1S,2S,4S)-4-(4-chloro-3-(trifluoromethyl)phenyl)-2-(dimethylamino)cyclohexyl)amino)-N-(pyrimidin-4-yl)pyridine-3-sulfonamide formate] was run?
**A.** The IC50 was 16.6 nM.

**Q.** Which IC50 does the source give for `CN(C)[C@H]1C[C@@H](c2ccc(Cl)c(C(F)(F)F)c2)CC[C@@H]1Oc1ccc(S(=O)(=O)Nc2ccncn2)cn1` [Example 12, 6-(((1S,2S,4S)-4-(4-chloro-3-(trifluoromethyl)phenyl)-2-(dimethylamino)cyclohexyl)oxy)-N-(pyrimidin-4-yl)pyridine-3-sulfonamide formate] here?
**A.** Its IC50 is 1.27 nM.

**Q.** Which IC50 does the source give for `CN(C)[C@H]1C[C@@H](c2cccc(OC(F)(F)F)c2)CC[C@@H]1Oc1ncc(S(=O)(=O)Nc2ccncn2)cc1Cl` [Example 13, 5-chloro-6-(((1S,2S,4S)-2-(dimethylamino)-4-(3-(trifluoromethoxy)phenyl)cyclohexyl)oxy)-N-(pyrimidin-4-yl)pyridine-3-sulfonamide] here?
**A.** Its IC50 is 13.8 nM.

**Q.** How did the IC50 turn out when `CN(C)[C@H]1C[C@@H](c2cccc(C(F)(F)F)c2)CC[C@@H]1Oc1ncc(S(=O)(=O)Nc2ccncn2)cc1C(F)(F)F` [Example 14, 6-(((1S,2S,4S)-2-(dimethylamino)-4-(3-(trifluoromethyl)phenyl)cyclohexyl)oxy)-N-(pyrimidin-4-yl)-5-(trifluoromethyl)pyridine-3-sulfonamide] was run?
**A.** The IC50 was 43.7 nM.

**Q.** How did the IC50 turn out when `Cc1cc(S(=O)(=O)Nc2ccncn2)cnc1O[C@H]1CC[C@H](c2cccc(C(F)(F)F)c2)C[C@@H]1N(C)C` [Example 15, 6-(((1S,2S,4S)-2-(Dimethylamino)-4-(3-(trifluoromethyl)phenyl)cyclohexyl)oxy)-5-methyl-N-(pyrimidin-4-yl)pyridine-3-sulfonamide] was run?
**A.** The IC50 was 40.8 nM.

**Q.** With `O=S(=O)(Nc1ccncn1)c1ccc(N[C@H]2CC[C@H](c3cccc(C(F)(F)F)c3)C[C@@H]2N2CCCC2)nc1` [Example 16, N-(pyrimidin-4-yl)-6-(((1S,2S,4S)-2-(pyrrolidin-1-yl)-4-(3-(trifluoromethyl)phenyl)cyclohexyl)-amino)pyridine-3-sulfonamide formate] as the molecule, how does the IC50 read?
**A.** The IC50 was 25.1 nM.

**Q.** `O=S(=O)(Nc1ccncn1)c1ccc(O[C@H]2CC[C@H](c3cccc(C(F)(F)F)c3)C[C@@H]2N2CCCC2)nc1` [Example 17, N-(pyrimidin-4-yl)-6-(((1S,2S,4S)-2-(pyrrolidin-1-yl)-4-(3-(trifluoromethyl)phenyl)cyclohexyl)oxy)-pyridine-3-sulfonamide formate] was tested. Which IC50 did it give?
**A.** The IC50 was 1.18 nM.

**Q.** For `O=S(=O)(Nc1ccncn1)c1cnc(O[C@H]2CC[C@H](c3cccc(C(F)(F)F)c3)C[C@@H]2N2CCCC2)c(Cl)c1` [Example 18, 5-chloro-N-(pyrimidin-4-yl)-6-(((1S,2S,4S)-2-(pyrrolidin-1-yl)-4-(3-(trifluoromethyl)phenyl)-cyclohexyl)oxy)pyridine-3-sulfonamide], which IC50 is on record?
**A.** The IC50 was 0.95 nM.

**Q.** `O=S(=O)(Nc1ccncn1)c1cnc(O[C@H]2CC[C@H](c3cccc(C(F)(F)F)c3)C[C@@H]2N2CCCCC2)c(Cl)c1` [Example 19, 5-chloro-6-(((1S,2S,4S)-2-(piperidin-1-yl)-4-(3-(trifluoromethyl)phenyl)cyclohexyl)oxy)-N-(pyrimidin-4-yl)pyridine-3-sulfonamide] was tested. Which IC50 did it give?
**A.** The IC50 was 0.493 nM.

**Q.** `CN(C)[C@H]1C[C@@H](c2cccc(C(F)(F)F)c2)CC[C@@H]1Oc1ncc(S(=O)(=O)Nc2ccncn2)cc1Br` [Example 20, 5-bromo-6-(((1S,2S,4S)-2-(dimethylamino)-4-(3-(trifluoromethyl)phenyl)cyclohexyl)oxy)-N-(pyrimidin-4-yl)pyridine-3-sulfonamide formate] was tested. Which IC50 did it give?
**A.** Its IC50 is 28.2 nM.

**Q.** With `CN(C)[C@H]1C[C@@H](c2cccc(C(F)(F)F)c2)CC[C@@H]1Oc1ncc(S(=O)(=O)Nc2ccncn2)cc1F` [Example 21, 6-(((1S,2S,4S)-2-(Dimethylamino)-4-(3-(trifluoromethyl)phenyl)cyclohexyl)oxy)-5-fluoro-N-(pyrimidin-4-yl)pyridine-3-sulfonamide] as the molecule, how does the IC50 read?
**A.** Its IC50 is 9.17 nM.

**Q.** `CN(C)[C@H]1C[C@@H](c2cccc(C(F)(F)F)c2)CC[C@@H]1Oc1ccc(S(=O)(=O)Nc2ccncn2)c(Cl)n1` [Example 22, 2-Chloro-6-(((1S,2S,4S)-2-(dimethylamino)-4-(3-(trifluoromethyl)phenyl)cyclohexyl)oxy)-N-(pyrimidin-4-yl)pyridine-3-sulfonamide] was tested. Which IC50 did it give?
**A.** Its IC50 is 40 nM.

**Q.** With `Cc1nc(O[C@H]2CC[C@H](c3cccc(C(F)(F)F)c3)C[C@@H]2N(C)C)ccc1S(=O)(=O)Nc1ccncn1` [Example 23, 6-(((1S,2S,4S)-2-(Dimethylamino)-4-(3-(trifluoromethyl)phenyl)cyclohexyl)oxy)-2-methyl-N-(pyrimidin-4-yl)pyridine-3-sulfonamide formate] as the molecule, how does the IC50 read?
**A.** The IC50 was 8.3 nM.

**Q.** For `CCc1cc(S(=O)(=O)Nc2ccncn2)cnc1O[C@H]1CC[C@H](c2cccc(C(F)(F)F)c2)C[C@@H]1N(C)C` [Example 24, 6-(((1S,2S,4S)-2-(Dimethylamino)-4-(3-(trifluoromethyl)phenyl)cyclohexyl)oxy)-5-ethyl-N-(pyrimidin-4-yl)pyridine-3-sulfonamide formate], which IC50 is on record?
**A.** The IC50 was 66.4 nM.

Reference: patent US12209075B2, “Pyridine-sulfonamide derivatives as sodium channel inhibitors” (GENENTECH, INC., priority 2018, dated 2025)
